Patent US9120756B2, “Substituted phenylureas and phenylamides as vanilloid receptor ligands” (Gruenenthal GmbH, priority 2009, dated 2015)

Target: hVR1 (Homo sapiens (Human), UniProt Q8NER1)
Test: FLIPR Ca2+ influx assay on CHO K1 cells transfected with the VR1 gene, capsaicin stimulus (method II)
Type: cell-based
Set-up: key to Ki (human being) Cap: result in words (NE / AG): AG=agonist; pAG=partial agonist; NE=no effect
Conditions: for Ki (human being) Cap: result in words (NE / AG): capsaicin; for inhibition at 5 µM: CHO-K1, read-out: Ki (human being) Cap column: inhibition (as a percentage) @ 5 μM, capsaicin, inhibition determined at 5 μM; for inhibition at 1 µM: CHO-K1, read-out: Ki (human being) inhibition (as a percentage) @ 1 μM, capsaicin, inhibition determined at 1 μM; for Ki: capsaicin (Cap), read-out: Ki (human being) [nM] Cap
Text: In the process, the Ca^2+ influx is quantified in the FLIPR assay with the aid of a Ca^2+-sensitive dye (type Fluo-4, Molecular Probes Europe BV, Leiden, the Netherlands) in a fluorescent imaging plate reader (FLIPR, Molecular Devices, Sunnyvale, USA), as described hereinafter.
The agonistic or antagonistic effect of the substances to be tested on the vanilloid receptor 1 (VR1) can also be determined using the following assay. In this assay, the influx of Ca^2+ through the channel is quantified with the aid of a Ca^2+-sensitive dye (type Fluo-4, Molecular Probes Europe BV, Leiden, the Netherlands) in a fluorescent imaging plate reader (FLIPR, Molecular Devices, Sunnyvale, USA).
Chinese hamster ovary cells (CHO K1 cells, European Collection of Cell Cultures (ECACC) United Kingdom) are stably transfected with the VR1 gene. For functional testing, these cells are plated out on poly-D-lysine-coated black 96-well plates having a clear base (BD Biosciences, Heidelberg, Germany) at a density of 25,000 cells/well. The cells are incubated overnight at 37° C. and 5% CO2 in a culture medium (Ham's F12 nutrient mixture, 10% by volume of FCS (foetal calf serum), 18 μg/ml of L-proline). The next day the cells are incubated with Fluo-4 (Fluo-4 2 μM, 0.01% by volume of Pluronic F127, Molecular Probes in HBSS (Hank's buffered saline solution), Gibco Invitrogen GmbH, Karlsruhe, Germany) for 30 minutes at 37° C. Subsequently, the plates are washed three times with HBSS buffer and after further incubation for 15 minutes at RT used for Ca^2+ measurement in a FLIPR assay. The Ca^2+-dependent fluorescence is measured before and after the addition of the substances to be tested (λex wavelength=488 nm, λem=540 nm). Quantification is carried out by measuring the highest fluorescence intensity (FC, fluorescence counts) over time.
The FLIPR protocol consists of 2 substance additions. First the compounds to be tested (10 μM) are pipetted onto the cells and the Ca^2+ influx is compared with the control (capsaicin 10 μM) (% activation based on the Ca^2+ signal after the addition of 10 μM of capsaicin). After 5 minutes' incubation, 100 nM of capsaicin are applied and the Ca^2+ influx is also determined.
Desensitising agonists and antagonists led to suppression of the Ca^2+ influx.
Starting from the percentage displacement caused by different concentrations of the compounds to be tested of general formula I, IC50 inhibitory concentrations which cause a 50-percent displacement of capsaicin were calculated. Ki values for the test substances were obtained by conversion by means of the Cheng-Prusoff equation (Cheng, Prusoff; Biochem. Pharmacol. 22, 3099-3108, 1973).

Chain of hVR1 (Q8NER1 whole entry): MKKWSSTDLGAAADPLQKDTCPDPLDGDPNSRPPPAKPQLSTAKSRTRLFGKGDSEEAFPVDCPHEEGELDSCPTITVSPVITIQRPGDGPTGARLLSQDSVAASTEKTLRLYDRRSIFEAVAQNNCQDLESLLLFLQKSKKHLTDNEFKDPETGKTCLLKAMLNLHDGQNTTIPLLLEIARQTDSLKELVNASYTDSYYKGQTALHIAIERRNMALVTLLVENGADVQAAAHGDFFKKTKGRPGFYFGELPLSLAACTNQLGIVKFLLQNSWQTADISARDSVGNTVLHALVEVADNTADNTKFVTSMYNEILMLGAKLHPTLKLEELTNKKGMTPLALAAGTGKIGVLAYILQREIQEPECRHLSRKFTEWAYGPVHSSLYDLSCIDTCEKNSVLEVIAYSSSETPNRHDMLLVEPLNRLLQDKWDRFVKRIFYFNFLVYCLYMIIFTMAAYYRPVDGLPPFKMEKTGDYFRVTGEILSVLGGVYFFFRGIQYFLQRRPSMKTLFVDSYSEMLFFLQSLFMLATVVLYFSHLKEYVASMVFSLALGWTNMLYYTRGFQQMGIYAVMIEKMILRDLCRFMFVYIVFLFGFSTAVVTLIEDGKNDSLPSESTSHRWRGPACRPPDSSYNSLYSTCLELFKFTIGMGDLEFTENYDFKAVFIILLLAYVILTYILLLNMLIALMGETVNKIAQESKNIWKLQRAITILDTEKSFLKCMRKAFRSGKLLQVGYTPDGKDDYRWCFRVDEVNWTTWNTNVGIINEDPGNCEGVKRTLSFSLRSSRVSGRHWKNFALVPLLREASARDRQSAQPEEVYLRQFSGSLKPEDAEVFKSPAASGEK

| Molecule | Ki [nM] | also measured |
| --- | --- | --- |
| CC(C)(C)c1cc(CNC(=O)Nc2ccc(N3CCOCC3)c(F)c2)n(-c2cccc(Cl)c2)n1 [Example 144, 1-((3-tert-butyl-1-(3-chlorophenyl)-1H-pyrazol-5-yl)methyl)-3-(3-fluoro-4-morpholinphenyl)urea] | – | Ki (human being) Cap: result in words (NE / AG): AG |
| CC(C)(C)c1nc(CNC(=O)Cc2cccc(F)c2)n(-c2cccc(Cl)c2)n1 [Example 135, N-((3-tert-butyl-1-(3-chlorophenyl)-1H-1,2,4-triazol-5-yl)methyl)-2-(3-fluorophenyl)acetamide] | – | inhibition at 5 µM: 24% |
| CC(C(=O)NCc1cc(C(F)(F)F)nn1-c1cccc(Cl)c1)c1ccc(C(=O)Nc2ccccc2)cc1 (stereo not drawn) [Example 143, 4-(1-((1-(3-chlorophenyl)-3-(trifluoromethyl)-1H-pyrazol-5-yl)methylamino)-1-oxopropan-2-yl)-N-phenylbenzamide] | – | inhibition at 1 µM: 56% |
| O=C(Cc1cc(F)c(O)c(F)c1)NCc1cc(C(F)(F)F)nn1-c1cccc(Cl)c1 [Example 147, N-((1-(3-chlorophenyl)-3-(trifluoromethyl)-1H-pyrazol-5-yl)methyl)-2-(3,5-difluoro-4-hydroxyphenyl)acetamide] | 26 | – |
| CC(C)(C(=O)NCc1cc(C(F)(F)F)nn1-c1cccc(Cl)c1)c1cccc(F)c1 [Example 117, N-((1-(3-chlorophenyl)-3-(trifluoromethyl)-1H-pyrazol-5-yl)methyl)-2-(3-fluorophenyl)-2-methylpropanamide] | 56 | – |
| COCCOCc1ccc(C(C)C(=O)NCc2cc(C(C)(C)C)nn2-c2cccc(Cl)c2)cc1F (stereo not drawn) [Example 142, N-((3-tert-butyl-1-(3-chlorophenyl)-1H-pyrazol-5-yl)methyl)-2-(3-fluoro-4-((2-methoxyethoxy)methyl)phenyl)propanamide] | – | Ki (human being) Cap: result in words (NE / AG): AG |
| O=C(NCc1cc(C(F)(F)F)nn1-c1cccc(Cl)c1)C1(c2cccc(F)c2)CCCC1 [Example 120, N-((1-(3-chlorophenyl)-3-(trifluoromethyl)-1H-pyrazol-5-yl)methyl)-1-(3-fluorophenyl)cyclopentancarboxamide] | – | inhibition at 1 µM: 6% |
| N-((1-(3-chlorophenyl)-3-cyclopropyl-1H-pyrazol-5-yl)methyl)-2-(3-fluoro-4-(methylsulfonylmethyl)phenyl)propanamide [Example 128] | 16.3 | – |
| CCCCCn1nc(C(F)(F)F)cc1CNC(=O)Cc1cccc(F)c1 [Example 131, 2-(3-fluorophenyl)-N-((1-pentyl-3-(trifluoromethyl)-1H-pyrazol-5-yl)methyl)acetamide] | – | inhibition at 5 µM: 58% |
| CC(C(=O)NCc1cc(C(F)(F)F)nn1NCc1ccccn1)c1ccc(CNS(C)(=O)=O)c(F)c1 (stereo not drawn) [Example 129, 2-(3-fluoro-4-(methylsulfonamidmethyl)phenyl)-N-((1-(pyridin-2-ylmethylamino)-3-(trifluoromethyl)-1H-pyrazol-5-yl)methyl)propanamide] | 63.6 | – |
| CC(C(=O)NCc1cc(C(C)(C)C)nn1-c1cccc(Cl)c1)c1ccc(C2CC2)c(F)c1 (stereo not drawn) [Example 125, N-((3-tert-butyl-1-(3-chlorophenyl)-1H-pyrazol-5-yl)methyl)-2-(4-cyclopropyl-3-fluorophenyl)propanamide] | – | Ki (human being) Cap: result in words (NE / AG): AG |
| COc1ccc(Cn2nc(C(F)(F)F)cc2CNC(=O)Cc2cccc(F)c2)cc1 [Example 132, 2-(3-fluorophenyl)-N-((1-(4-methoxybenzyl)-3-(trifluoromethyl)-1H-pyrazol-5-yl)methyl)acetamide] | – | inhibition at 5 µM: 34% |
| COc1c(F)cc(C(C)C(=O)NCc2cc(C(F)(F)F)nn2-c2cccc(Cl)c2)cc1F (stereo not drawn) [Example 47, N-((1-(3-chlorophenyl)-3-(trifluoromethyl)-1H-pyrazol-5-yl)methyl)-2-(3,5-difluoro-4-methoxyphenyl)propanamide] | 17 | – |
| Cc1c(C(F)(F)F)nn(-c2cccc(Cl)c2)c1CNC(=O)C(C)c1ccc(CNS(C)(=O)=O)c(F)c1 (stereo not drawn) [Example 134, N-((1-(3-chlorophenyl)-4-methyl-3-(trifluoromethyl)-1H-pyrazol-5-yl)methyl)-2-(3-fluoro-4-(methylsulfonamidmethyl)phenyl)propanamide] | 2.5 | – |
| CC(C(=O)NCc1cc(C(F)(F)F)nn1-c1cccc(Cl)c1)c1ccc(C(=O)Nc2ccc(F)cc2)cc1 (stereo not drawn) [Example 40, 4-(1-((1-(3-chlorophenyl)-3-(trifluoromethyl)-1H-pyrazol-5-yl)methylamino)-1-oxopropan-2-yl)-N-(4-fluorophenyl)benzamide] | 0.8 | – |
| CC(C)(C)c1cc(CNC(=O)Cc2cccc(F)c2)n(-c2cccc(Cl)c2)n1 [Example 73, N-((3-tert-butyl-1-(3-chlorophenyl)-1H-pyrazol-5-yl)methyl)-2-(3-fluorophenyl)acetamide] | – | Ki (human being) Cap: result in words (NE / AG): AG |
| O=C(NCc1cc(C(F)(F)F)nn1-c1cccc(Cl)c1)Nc1ccc(C2CC2)c(F)c1 [Example 126, 1-((1-(3-chlorophenyl)-3-(trifluoromethyl)-1H-pyrazol-5-yl)methyl)-3-(4-cyclopropyl-3-fluorophenyl)urea] | 31.4 | – |
| CC(C)(C)c1cc(CNC(=O)Cc2cccc(F)c2)n(NCC(F)(F)F)n1 [Example 133, N-((3-tert-butyl-1-(2,2,2-trifluoroethylamino)-1H-pyrazol-5-yl)methyl)-2-(3-fluorophenyl)acetamide] | – | inhibition at 5 µM: 12% |
| CN(C(=O)NCc1cc(C(F)(F)F)nn1-c1cccc(Cl)c1)c1cccc(F)c1 [Example 123, 3-((1-(3-chlorophenyl)-3-(trifluoromethyl)-1H-pyrazol-5-yl)methyl)-1-(3-fluorophenyl)-1-methylurea] | – | inhibition at 5 µM: 44% |
| Cc1c(C(F)(F)F)nn(-c2cccc(Cl)c2)c1CNC(=O)Cc1cccc(F)c1 [Example 130, N-((1-(3-chlorophenyl)-4-methyl-3-(trifluoromethyl)-1H-pyrazol-5-yl)methyl)-2-(3-fluorophenyl)acetamide] | 112 | – |
| CC(C(=O)NCc1cc(C(C)(C)C)nn1-c1ccccn1)c1ccc(CNS(C)(=O)=O)c(F)c1 (stereo not drawn) [Example 127, N-((3-tert-butyl-1-(pyridin-2-yl)-1H-pyrazol-5-yl)methyl)-2-(3-fluoro-4-(methylsulfonamidmethyl)phenyl)propanamide] | 58.1 | – |
| CC(C(=O)NCc1cc(C(F)(F)F)nn1C1CCCCC1)c1ccc(CNS(C)(=O)=O)c(F)c1 (stereo not drawn) [Example 137, N-((1-cyclohexyl-3-(trifluoromethyl)-1H-pyrazol-5-yl)methyl)-2-(3-fluoro-4-(methylsulfonamidmethyl)phenyl)propanamide] | 65.1 | – |
| CC(C(=O)NCc1cc(C(C)(C)C)nn1-c1cccc(Cl)c1)c1ccc(CNS(C)(=O)=O)c(F)c1 (stereo not drawn) [Example 33, N-((3-tert-butyl-1-(3-chlorophenyl)-1H-pyrazol-5-yl)methyl)-2-(3-fluoro-4-(methylsulphonamidomethyl)phenyl)propanamide] | 4 | – |
| O=C(NCc1cc(C(F)(F)F)nn1-c1cccc(Cl)c1)C1(c2cccc(F)c2)CCC1 [Example 119, N-((1-(3-chlorophenyl)-3-(trifluoromethyl)-1H-pyrazol-5-yl)methyl)-1-(3-fluorophenyl)cyclobutancarboxamide] | 107 | – |
| CC(C)(C)c1cc(CNC(=O)C2(c3cccc(F)c3)CC2)n(-c2cccc(Cl)c2)n1 [Example 118, N-((3-tert-butyl-1-(3-chlorophenyl)-1H-pyrazol-5-yl)methyl)-1-(3-fluorophenyl)cyclopropancarboxamide] | – | Ki (human being) Cap: result in words (NE / AG): AG |
| CC(C)(C)c1cc(CNC(=O)Nc2cccc(F)c2)n(-c2ccc(F)cc2)n1 [Example 122, 1-((3-tert-butyl-1-(4-fluorophenyl)-1H-pyrazol-5-yl)methyl)-3-(3-fluorophenyl)urea] | – | Ki (human being) Cap: result in words (NE / AG): AG |
| CC(C(=O)NCc1cc(C(F)(F)F)nn1-c1cccc(Cl)c1)c1ccc(C(=O)Nc2ccc(C(F)(F)F)cc2)cc1 (stereo not drawn) [Example 41, 4-(1-((1-(3-chlorophenyl)-3-(trifluoromethyl)-1H-pyrazol-5-yl)methylamino)-1-oxopropan-2-yl)-N-(4-(trifluoromethyl)phenyl)benzamide] | 85 | – |
